Experimental data from PMC7762994 (Viruses, 2020).

Tests used:
[1] = target: T1, DNAJB11 (Homo sapiens, UniProt Q9UBS4); test: 2D-TPP in U87 cells
T1 sequence (Q9UBS4 23-358): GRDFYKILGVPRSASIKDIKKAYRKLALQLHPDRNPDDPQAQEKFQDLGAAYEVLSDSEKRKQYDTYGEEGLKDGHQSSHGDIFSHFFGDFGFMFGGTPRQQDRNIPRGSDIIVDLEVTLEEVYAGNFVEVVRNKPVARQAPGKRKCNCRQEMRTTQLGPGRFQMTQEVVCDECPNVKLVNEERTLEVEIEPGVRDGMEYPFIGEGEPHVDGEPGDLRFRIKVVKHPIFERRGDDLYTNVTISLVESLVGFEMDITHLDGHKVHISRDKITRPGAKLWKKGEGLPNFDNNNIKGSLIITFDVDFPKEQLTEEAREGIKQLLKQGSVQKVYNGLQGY

[2] = target: OGG1 (Homo sapiens, UniProt O15527); test: In vitro OGG1 activity assay; format: biochemical
[3] = target: T2, host proteins (proteome-wide) (Homo sapiens, UniProt A0AVT1); test: 2D-TPP in U87 cells (proteome-wide); format: binding; settings: protein A0AVT1 (UBA6)
T2 construct: endogenous in cells; host or cells: U87 cells
T2 sequence (A0AVT1 1-1052): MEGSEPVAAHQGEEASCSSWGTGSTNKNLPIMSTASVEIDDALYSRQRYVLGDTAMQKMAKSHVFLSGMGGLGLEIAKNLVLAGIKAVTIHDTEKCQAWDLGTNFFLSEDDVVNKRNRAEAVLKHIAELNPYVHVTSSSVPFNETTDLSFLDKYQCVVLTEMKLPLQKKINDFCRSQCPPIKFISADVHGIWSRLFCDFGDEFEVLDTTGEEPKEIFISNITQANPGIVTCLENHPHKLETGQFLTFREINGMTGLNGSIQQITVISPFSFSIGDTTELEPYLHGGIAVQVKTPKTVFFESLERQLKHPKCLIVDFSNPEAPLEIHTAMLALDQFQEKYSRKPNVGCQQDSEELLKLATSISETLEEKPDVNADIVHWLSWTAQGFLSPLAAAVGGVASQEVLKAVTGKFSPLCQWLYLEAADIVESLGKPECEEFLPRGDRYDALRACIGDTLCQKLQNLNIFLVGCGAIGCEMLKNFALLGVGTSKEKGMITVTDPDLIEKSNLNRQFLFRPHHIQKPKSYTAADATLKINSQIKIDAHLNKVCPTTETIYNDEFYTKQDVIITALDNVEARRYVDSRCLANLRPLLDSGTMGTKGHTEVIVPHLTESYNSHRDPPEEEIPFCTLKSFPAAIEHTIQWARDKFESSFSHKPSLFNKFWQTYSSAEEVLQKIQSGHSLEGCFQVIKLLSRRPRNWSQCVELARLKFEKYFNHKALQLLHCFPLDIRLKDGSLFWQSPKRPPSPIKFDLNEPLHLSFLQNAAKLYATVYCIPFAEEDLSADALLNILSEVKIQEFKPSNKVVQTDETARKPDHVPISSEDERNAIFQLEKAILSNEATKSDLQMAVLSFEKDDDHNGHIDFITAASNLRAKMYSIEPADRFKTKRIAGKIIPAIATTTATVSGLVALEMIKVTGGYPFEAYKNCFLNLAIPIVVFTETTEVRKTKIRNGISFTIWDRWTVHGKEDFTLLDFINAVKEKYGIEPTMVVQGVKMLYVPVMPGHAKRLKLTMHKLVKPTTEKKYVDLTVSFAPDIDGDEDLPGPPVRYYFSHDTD

[4] = tested on: host proteins (proteome-wide); test: 2D-TPP in U87 cells (proteome-wide); format: binding, Homo sapiens; settings: protein A0A087WUL8 (NBPF19¦NBPF26¦NBPF1¦NBPF20¦NBPF8¦NBPF12¦NBPF14)
[5] = target: T3, host proteins (proteome-wide) (Homo sapiens, UniProt A0FGR8); test: 2D-TPP in U87 cells (proteome-wide); format: binding
T3 sequence (A0FGR8 1-921): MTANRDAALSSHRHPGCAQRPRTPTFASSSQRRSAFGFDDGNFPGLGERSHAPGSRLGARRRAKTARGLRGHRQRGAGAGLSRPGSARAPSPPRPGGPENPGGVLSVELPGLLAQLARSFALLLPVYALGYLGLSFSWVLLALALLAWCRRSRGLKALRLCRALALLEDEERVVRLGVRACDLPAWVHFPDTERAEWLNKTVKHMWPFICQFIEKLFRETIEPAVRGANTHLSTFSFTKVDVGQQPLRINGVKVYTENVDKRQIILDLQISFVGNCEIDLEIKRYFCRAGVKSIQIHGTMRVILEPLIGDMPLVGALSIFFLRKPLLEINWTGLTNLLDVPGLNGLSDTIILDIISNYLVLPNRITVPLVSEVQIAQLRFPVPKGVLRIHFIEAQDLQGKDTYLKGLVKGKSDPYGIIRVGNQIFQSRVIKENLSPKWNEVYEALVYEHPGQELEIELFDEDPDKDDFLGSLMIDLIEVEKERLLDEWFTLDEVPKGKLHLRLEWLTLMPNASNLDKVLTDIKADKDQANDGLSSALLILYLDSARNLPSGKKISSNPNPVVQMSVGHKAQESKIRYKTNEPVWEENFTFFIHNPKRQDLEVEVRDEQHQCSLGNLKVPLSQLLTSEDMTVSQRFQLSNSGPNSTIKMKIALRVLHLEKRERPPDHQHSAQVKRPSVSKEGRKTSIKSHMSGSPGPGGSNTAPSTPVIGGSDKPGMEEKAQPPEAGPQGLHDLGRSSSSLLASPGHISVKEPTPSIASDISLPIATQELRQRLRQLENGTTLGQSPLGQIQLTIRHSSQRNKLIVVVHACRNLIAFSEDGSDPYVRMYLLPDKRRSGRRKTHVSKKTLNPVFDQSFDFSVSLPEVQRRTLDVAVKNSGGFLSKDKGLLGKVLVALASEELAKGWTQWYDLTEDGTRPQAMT

[6] = target: T4, HSPA12A (Homo sapiens, UniProt O43301); test: 2D-TPP in U87 cells; format: binding; settings: 1.5 h, destabilized, read-out: pEC50 of protein destabilization, HSPA12A (converted)
T4 construct: endogenous in cells; host or cells: U87 cells
T4 sequence (O43301 whole entry): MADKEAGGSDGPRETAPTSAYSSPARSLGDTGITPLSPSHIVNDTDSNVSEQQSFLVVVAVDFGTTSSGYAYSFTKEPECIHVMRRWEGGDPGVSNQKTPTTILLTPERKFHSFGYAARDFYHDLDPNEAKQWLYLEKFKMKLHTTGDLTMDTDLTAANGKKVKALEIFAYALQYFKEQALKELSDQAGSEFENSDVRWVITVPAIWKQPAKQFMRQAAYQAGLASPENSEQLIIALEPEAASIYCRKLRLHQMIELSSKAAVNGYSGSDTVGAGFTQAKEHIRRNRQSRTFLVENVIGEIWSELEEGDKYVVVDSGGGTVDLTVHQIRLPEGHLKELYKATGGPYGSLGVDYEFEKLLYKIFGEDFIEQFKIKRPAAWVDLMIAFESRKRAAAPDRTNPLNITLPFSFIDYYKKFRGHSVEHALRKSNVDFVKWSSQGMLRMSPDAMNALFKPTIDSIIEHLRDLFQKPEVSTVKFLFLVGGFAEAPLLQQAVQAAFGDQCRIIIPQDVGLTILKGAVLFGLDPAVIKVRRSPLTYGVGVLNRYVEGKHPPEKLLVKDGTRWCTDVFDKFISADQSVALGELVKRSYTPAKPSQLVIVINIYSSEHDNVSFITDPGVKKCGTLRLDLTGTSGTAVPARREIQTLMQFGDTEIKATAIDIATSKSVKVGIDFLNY

Chain of OGG1 (O15527 whole entry): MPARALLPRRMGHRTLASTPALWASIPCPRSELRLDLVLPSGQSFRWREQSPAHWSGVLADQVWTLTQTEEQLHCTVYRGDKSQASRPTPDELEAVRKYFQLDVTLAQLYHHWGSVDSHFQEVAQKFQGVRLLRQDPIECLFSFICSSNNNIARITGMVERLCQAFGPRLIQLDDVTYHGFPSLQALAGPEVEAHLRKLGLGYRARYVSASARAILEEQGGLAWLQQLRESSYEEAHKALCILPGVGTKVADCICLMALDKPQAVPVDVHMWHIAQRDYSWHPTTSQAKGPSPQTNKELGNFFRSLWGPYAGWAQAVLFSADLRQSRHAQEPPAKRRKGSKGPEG

CCOC(=O)c1cnn(-c2cccc3c2[nH]c(=O)n3C2CCN(C(=O)Nc3ccc(I)cc3)CC2)c1 [TH6744, ethyl 1-(1-(1-((4-iodophenyl)carbamoyl)piperidin-4-yl)-2-oxo-2,3-dihydro-1H-benzo[d]imidazol-4-yl)-1H-pyrazole-4-carboxylate]
EC50 [1]: 7.94 µM
IC50 [2]: 0.68 µM
OGG1 activity (in words) ([2]; Figure 3A): Nanomolar OGG1activity
EC50 ([3]; temperature 51, Set2): 0.89 µM
norm_rel_fc_protein_1_unmodified ([3]; temperature 51, dose 1, Set2): 1.349
norm_rel_fc_protein_3_unmodified ([3]; temperature 51, dose 3, Set2): 1.572
norm_rel_fc_protein_10_unmodified ([3]; temperature 51, dose 10, Set2): 1.5768
norm_rel_fc_protein_30_unmodified ([3]; temperature 51, dose 30, Set2): 1.557
pec50 ([4]; temperature 45, Set1): 5.615
norm_rel_fc_protein_1_unmodified ([4]; temperature 45, dose 1, Set1): 0.9697
norm_rel_fc_protein_3_unmodified ([4]; temperature 45, dose 3, Set1): 0.761
norm_rel_fc_protein_10_unmodified ([4]; temperature 45, dose 10, Set1): 0.63
norm_rel_fc_protein_30_unmodified ([4]; temperature 45, dose 30, Set1): 0.6272
pec50 ([5]; protein A0FGR8 (ESYT2), temperature 54, Set2): 5.517
norm_rel_fc_protein_1_unmodified ([5]; protein A0FGR8 (ESYT2), temperature 54, dose 1, Set2): 0.9139
norm_rel_fc_protein_3_unmodified ([5]; protein A0FGR8 (ESYT2), temperature 54, dose 3, Set2): 0.7618
norm_rel_fc_protein_10_unmodified ([5]; protein A0FGR8 (ESYT2), temperature 54, dose 10, Set2): 0.587
norm_rel_fc_protein_30_unmodified ([5]; protein A0FGR8 (ESYT2), temperature 54, dose 30, Set2): 0.5111
pec50 ([5]; protein A0FGR8 (ESYT2), temperature 57, Set2): 5.71
norm_rel_fc_protein_1_unmodified ([5]; protein A0FGR8 (ESYT2), temperature 57, dose 1, Set2): 0.8819
norm_rel_fc_protein_3_unmodified ([5]; protein A0FGR8 (ESYT2), temperature 57, dose 3, Set2): 0.7127
norm_rel_fc_protein_10_unmodified ([5]; protein A0FGR8 (ESYT2), temperature 57, dose 10, Set2): 0.531
norm_rel_fc_protein_30_unmodified ([5]; protein A0FGR8 (ESYT2), temperature 57, dose 30, Set2): 0.5493
pec50 ([5]; protein A0FGR8-2 (ESYT2), temperature 54, Set2): 5.517
norm_rel_fc_protein_1_unmodified ([5]; protein A0FGR8-2 (ESYT2), temperature 54, dose 1, Set2): 0.9139
norm_rel_fc_protein_3_unmodified ([5]; protein A0FGR8-2 (ESYT2), temperature 54, dose 3, Set2): 0.7618
norm_rel_fc_protein_10_unmodified ([5]; protein A0FGR8-2 (ESYT2), temperature 54, dose 10, Set2): 0.587
norm_rel_fc_protein_30_unmodified ([5]; protein A0FGR8-2 (ESYT2), temperature 54, dose 30, Set2): 0.5111
EC50 [6]: 12.6 µM
